Key:
[1] = system: human melanoma cell lines; experiment: Cell viability of human melanoma cell lines (CellTiter-Glo, 48-72 hours); assay type: cell-based
Experimental: (§1) Experiments described in this example were performed using methods as described in Haq et al. (2013). Oncogenic BRAF regulates oxidative metabolism via PGC1α and MITF. Cancer Cell. 2013 Mar. 18; 23(3):302-15.
(§2) Indicated cell line was treated with varying concentrations of ML329 for 48-72 hours. Viability was measured using the CellTiter-Glo reagent (Promega).

non-melanoma cells = experiment: Non-melanoma cell viability (CellTiter-Glo, 48-72 hours); assay type: cell-based
Experimental: as §1, §2

[2] = system: MITF and MITF target genes; experiment: qPCR of MITF and MITF target genes in human melanoma cell lines and primary melanocytes; assay type: cell-based; conditions: 24 h, multiple cell lines
Experimental: as §1
Effect of ML329 (24 h at indicated concentration) on MITF mRNA and target gene mRNA expression in melanoma cell lines. mRNA was quantified by qPCR.

MITF protein = MITF protein by Western immunoblotting in SKMEL-5 cells; assay type: cell-based, human
Experimental: as §1
MITF protein was detected using Western immunoblotting. In parallel, SK-MEL-5 cells treated with ML329 (above) were lysed and MITF mRNA was quantified by qPCR (FIG. 12b).

SK-MEL-5 cells = experiment: SK-MEL-5 cell cytotoxicity assay (CellTiter-Glo); assay type: cell-based, human; conditions: FIG. 13
Experimental: (§3) SK-MEL-5 cells were treated with compounds for 24 hours, and then cell viability was measured using the CellTiter-Glo Assay (Promega), a luciferase-based reagent that measures cellular ATP levels. The compounds were tested at different concentrations to determine IC50 values. Compounds that were active in the primary assay and toxic below 30 μM at 24 hours were considered for probe development. Data were normalized against DMSO in Genedata Screener's Assay Analyzer.
(§4) SK-MEL-5 cells were maintained in DMEM (10% FBS, 1% Pen-Strep-Glutamine). Cells were fluid changed every 3 days and/or split upon reaching 100% confluency. For secondary assays, cells were thawed at 4 million cells per Falcon T175 flask. After 3 days, the cells were fluid changed, after 3 more days cells were passed to a Corning Triple flask (10-15 million cells) and plated after 3 days in the triple flask.
Day 1 • 1. Plate SK-MEL-5 cells at 3,000 per well in 30 uL media (phenol red free DMEM/10% Fetal Bovine Serum/Penicillin/Streptomycin/L-Glutamine) • 2. Use Corning white 384-well, square, opaque-bottomed plates (Corning Catalog No. 8867BC)
Day 2 • 3. Pin 100 nL compound/DMSO solution (Cybi Well) into assay plates. (For HTS, required sentinel pinning with the positive control, parthenolide (6 mM)) • 4. […]
(§5) Day 3 • 5. […] Read on the Perkin-Elmer EnVision plate reader with luminescence (LUM) settings for 0.1 sec per well. […]

MALME-3M cells = experiment: MALME-3M cell cytotoxicity assay (CellTiter-Glo); assay type: cell-based, human; conditions: FIG. 13
Experimental: as §3, with “MALME-3M” for “SK-MEL-5”
as §4, with “MALME-3M” for “SK-MEL-5”, “IMDM (20%” for “DMEM (10%”, “6” for “4”, “days,” for “days, the”, “(15-18” for “(10-15”
Day 1 • 1. Plate MALME-3M cells at 3,000 per well in 30 uL media (phenol red free IMDM/10% Fetal Bovine Serum/Penicillin/Streptomycin/L-Glutamine) • 2. Use Corning white 384-well, square, opaque-bottomed plates (Corning Catalog No. 8867BC)
Day 2 • 3. Pin 100 nL compound/DMSO solution (Cybi Well) into assay plates, including the positive control. • 4. Incubate 24 hours at 37° C. in Liconic incubator.
as §5

A375 cells = experiment: A-375 cell cytotoxicity assay (CellTiter-Glo); assay type: cell-based, human; conditions: FIG. 13
Experimental: as §3, with “A375 cells were” for “SK-MEL-5 cells were”, “assay and were not toxic below” for “assay and toxic below”
as §4, with “A-375” for “SK-MEL-5”, “90%” for “100%”, “2” for “4”, “days,” for “days, the cells were fluid changed, after 3 more days”, “(6-8” for “(10-15”
Day 1 • 1. Plate A-375 cells at 3,000 per well in 30 uL media (phenol red free DMEM/10% Fetal Bovine Serum/Penicillin/Streptomycin/L-Glutamine) • 2. Use Corning white 384-well, square, opaque-bottomed plates (Corning Catalog No. 8867BC)
Day 2 • 3. Pin 100 nL compound/DMSO solution (Cybi Well) into assay plates. (For HTS, required sentinel pinning with the positive control, parthenolide (6 mM)) • 4. Incubate 24 hours at 37° C. in Liconic incubator.
as §5

CDK2 = experiment: qPCR assay for CDK2 expression in SK-MEL-5 cells; assay type: cell-based, human; conditions: qPCR
Experimental: SK-MEL-5 cells were treated with compounds for 24 hours. Next, cells were lysed with DNase I (Ambion, from Cell to CT Lysis Mix). Lysed cells were delivered to a RT-PCR plate (Ambion, Cells to CT RT Mix) and the plates were then processed for reverse transcription to create cDNA. qPCR was performed by transferring cDNA from the RT-PCR plate to a qPCR plate containing PCR master mix (Roche, Probes Master), FAM Taqman probe/primer set for the target gene (human MITF, Applied Biosystem, 4331182 Hs01117294_m1), VIC Taqman probe/primer set for a house keeping gene (human GAPDH, Applied Biosystems C10228) and water. qPCR plates were cycled using a real-time PCR instrument (Roche, Light Cycler). Using the instrument software, a cycle call was generated when each well enters log phase amplification (Ct). The delta Ct value was determined by subtracting the Ct value of the control gene (GAPDH) from the Ct value of the target gene (MITF) in each well. The delta delta Ct value of each compound treatment was determined by averaging the delta Ct values of the mock well on each plate and subtracting that average from the delta Ct value of each compound well. […]
• 10. […] The RT assay plates are incubated at 37° C. for 1 hour and the reverse transcriptase is inactivated by incubating the plates for 1 minute at 95° C. • 13. cDNA is stored at −80° C. until ready for qPCR analysis […]

## NS(=O)(=O)c1ccc(NC2=CC(=O)c3ccccc3C2=O)cc1 [ML329, 4-((1,4-dioxo-1,4-dihydronaphthalen-2-yl)amino)benzenesulfonamide]
[1]; A375, SKMEL2, IPC298 and SK30
  Sensitivity of melanoma cell lines (cell viability): less sensitive
[1]; CellTiter-Glo, incl. vemurafenib-resistant lines
  Cytotoxicity in a large number of melanoma cells: variably cytotoxic
[1]; SKMEL5, IST MEL, MALME-3M and 501 MEL
  Sensitivity of melanoma cell lines (cell viability): very sensitive
[1]; UACC257, C32, COLO800 and MZ2MEL
  Sensitivity of melanoma cell lines (cell viability): sensitive
non-melanoma cells
  Cytotoxicity in non-melanoma cells or melanoma cells lacking MITF: not cytotoxic
[2]
  Effect on MITF mRNA and target gene mRNA expression: suppresses MITF and its transcriptional activity
MITF protein
  Effect on MITF protein: suppresses MITF protein

## Cc1nc2ccccc2n1/N=C/c1ccc([N+](=O)[O-])s1
SK-MEL-5 cells
  Cell viability, SK-MEL-5 (MITF-dependent), result in words: specific activity against the MITF-dependent cells
MALME-3M cells
  Cell viability, MALME-3M (MITF-dependent), result in words: specific activity against the MITF-dependent cells
A375 cells
  Cell viability, A-375 (MITF-independent), result in words: no impairment of viability
CDK2
  CDK2 expression, result in words: reduced the expression
